From patent US11834450B2, “Compounds having ((3-nitrophenyl)sulfonyl)acetamide as BCL-2 inhibitors” (Eil Therapeutics, Inc., priority 2021, dated 2023)
Read-outs that look alike come from different tables or passages of the source.

Columns and labels:
[1] = Cell viability assay HEK293 (CellTiter-Glo); format: cell-based; details: human, HEK293 cells, read-out: HEK293 (CC50 code)
Procedure: (§1) Assay Condition: Used culture medium for HEK293-DMEM (PanEco, Cat #C420), for the rest of the cell lines—culture medium RPMI-1640 (PanEco, Cat #C363).
(§2) Assay Procedure: Compounds were prepared as 200× stocks with serial dilution in 100% DMSO with a final concentration of 1×. Dispersed 40 μl in 384-well plates at a concentration of 2000 cells per well for HEK293 and at a concentration of 4000 cells per well for the rest of the cell lines using a robotic station Biomek (Beckman). Before adding compounds, the cells were incubated at 37° C. (HEK293 were incubated for a day before adding compounds).
(§3) A dilution plate was prepared by pouring 78 μl of the appropriate culture medium using a robotic station Biomek (Beckman). Sequentially, using a robotic station, 2 μl of substances were taken and added to 78 μl of culture medium (dilution of compounds 40×). Took from there 10 μl and added to the plates to the cells (dilution of compounds 5×). The plates were incubated for 3 days at a temperature 37° C. After 3 days, 10 μl of CellTiter-Glo (Promega) was added to the cells and the luminescence was measured.

[2] = tested on: caspase-3 and -7 activities in RS4-11 cells; experiment: Cas-3/7 activation (Caspase-Glo 3/7) in RS4-11 cells; format: cell-based; details: Homo sapiens, 3.5 h at 37° C. and 30 min at r.t., read-out: Cas-3/7 (EC50 code)
Procedure: Assay Principle: The Caspase-Glo 3/7 Assay is homogeneous, luminescent assay that measures caspase-3 and -7 activities. The assay provides a luminogenic caspase-3/7 substrate, which contains the tetrapeptide sequence DEVD, in a reagent optimized for caspase activity.
Assay Procedure: Incubate RS4-11 cells with varying concentrations of test compounds for 3.5 h in a humidified incubator at 37° C. and 5% CO2 and 30 min at r.t. Add 15 μl Caspase-Glo reagent to each well and incubate the plate for 30 min at r.t. Read on ClarioStar Plus instrument.
Materials: Promega Caspase-Glo (Promega, #8212); Frozen RS4-11 cells; 384-well white plate (Corning, #3570).
Instrumentation: ClarioStar Plus; Biomek FX for liquid handling (Beckman Coulter).

[3] = molecular target: T1, BCL-2 (Homo sapiens, UniProt P10415); experiment: BCL-2 TR-FRET Assay (primary PPI inhibition); format: binding; details: 60 min incubation; read-out: BCL2 (IC50 code, BCL-2 TR-FRET)
T1 construct: purchased BPS Bioscience #50222
T1 sequence (P10415 whole entry): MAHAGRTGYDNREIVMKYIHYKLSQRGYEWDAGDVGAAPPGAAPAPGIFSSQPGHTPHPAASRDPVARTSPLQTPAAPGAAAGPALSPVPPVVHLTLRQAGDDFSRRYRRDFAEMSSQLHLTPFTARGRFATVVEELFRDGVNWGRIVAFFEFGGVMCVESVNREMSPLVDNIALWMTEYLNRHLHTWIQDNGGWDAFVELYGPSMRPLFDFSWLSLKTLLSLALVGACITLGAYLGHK

[4] = tested on: RS4-11 cells; experiment: Cell viability assay RS4-11 (CellTiter-Glo); format: cell-based; details: Homo sapiens, read-out: RS4-11 (CC50 code)
Procedure: as §1, §2, §3

[5] = tested on: MOLT-4 cells; experiment: Cell viability assay MOLT-4 (CellTiter-Glo); format: cell-based; details: Homo sapiens, read-out: MOLT-4 (CC50 code)
Procedure: as §1, §2, §3

[6] = molecular target: T2, BCL-XL (Homo sapiens, UniProt Q07817); experiment: BCL-XL TR-FRET Assay (primary PPI inhibition); format: binding; details: 60 min incubation; read-out: BCLxL (IC50 code, BCL-XL TR-FRET)
T2 construct: purchased BPS Bioscience #50223
T2 sequence (Q07817 whole entry): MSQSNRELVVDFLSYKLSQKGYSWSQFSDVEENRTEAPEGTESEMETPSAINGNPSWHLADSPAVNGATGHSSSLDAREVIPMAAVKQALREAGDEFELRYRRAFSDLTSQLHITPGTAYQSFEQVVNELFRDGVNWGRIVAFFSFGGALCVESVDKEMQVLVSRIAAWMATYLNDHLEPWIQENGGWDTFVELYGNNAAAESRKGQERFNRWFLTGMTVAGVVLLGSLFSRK
Procedure: BCL-XL TR-FRET Assay (BPS Bioscience, #50223) Assay Condition: The following assay concentrations and times were used: 10.5 ng BCL-XL, 5 ul of 1:100 anti-His Tb-labeled donor, 5 ul of 1:100 Dye-labeled acceptor, 5 ul of 1:80 BCL-XL Peptide Ligand, and 2 ul of test compound, with 60 min incubation time. The results of the assay were read using a Clariostar (BMG Labtech) plate reader with the following parameters: TR FRET, 340 ex/620 and 665 em; 60 μsec Delay; and 500 μsec integration.

[7] = 72 h, RS4-11 cells, 3 days, CellTiter-Glo
[8] = 72 h, MOLT-4 cells, 3 days, CellTiter-Glo

| SMILES | EC50 [2] | IC50 [3] | IC50 [6] | CC50 at 3 days [1] | CC50 [4, 7] | CC50 [5, 8] | CC50 ([4]; RS4-11, 72 h) | CC50 ([5]; MOLT-4, 72 h) |
| --- | --- | --- | --- | --- | --- | --- | --- | --- |
| O=C(NS(=O)(=O)c1ccc(NCC2CCOCC2)c([N+](=O)[O-])c1)c1ccc(N2CCC(CN3C(=O)C4(CCCC4)C3c3ccccc3)CC2)cc1Oc1cnc2[nH]ccc2c1 (centres unmarked) [Compound 2, N-[3-nitro-4-(tetrahydropyran-4-ylmethylamino)phenyl]sulfonyl-4-[4-[(3-oxo-1-phenyl-2-azaspiro[3.4]octan-2-yl)methyl]-1-piperidyl]-2-(1H-pyrrolo[2,3-b]pyridin-5-yloxy)benzamide] | > 250 nM | > 50 nM | > 4 µM | > 25 µM | > 200 nM | > 10 µM |  |  |
| Cc1cc(Cl)ccc1C1N(CC2CCN(c3ccc(C(=O)NS(=O)(=O)c4ccc(NCC5CCOCC5)c([N+](=O)[O-])c4)c(Oc4cnc5[nH]ccc5c4)c3)CC2)C(=O)C12CCCC2 (centres unmarked) [Compound 3, 4-[4-[[1-(4-chloro-2-methyl-phenyl)-3-oxo-2-azaspiro[3.4]octan-2-yl]methyl]-1-piperidyl]-N-[3-nitro-4-(tetrahydropyran-4-ylmethylamino)phenyl]sulfonyl-2-(1H-pyrrolo[2,3-b]pyridin-5-yloxy)benzamide] | > 250 nM | 10 to 50 nM | 2 to 4 µM | > 25 µM | > 200 nM | 2 to 10 µM |  |  |
| O=C(NS(=O)(=O)c1ccc(NCC2CCOCC2)c([N+](=O)[O-])c1)c1ccc(N2CCN(CC(c3ccccc3)c3ccccc3)CC2)cc1Oc1cnc2[nH]ccc2c1 [Compound 4, 4-[4-(2,2-diphenylethyl)piperazin-1-yl]-N-[3-nitro-4-(tetrahydropyran-4-ylmethylamino)phenyl]sulfonyl-2-(1H-pyrrolo[2,3-b]pyridin-5-yloxy)benzamide] | > 250 nM | > 50 nM | > 4 µM | > 25 µM | > 200 nM | 2 to 10 µM |  |  |
| O=C(NS(=O)(=O)c1ccc(NCC2CCOCC2)c([N+](=O)[O-])c1)c1ccc(N2CCN(C[C@@H]3Cc4ccccc4CN3C(=O)C3CC3)CC2)cc1Oc1cnc2[nH]ccc2c1 [Compound 5, 4-[4-[[(3S)-2-(cyclopropanecarbonyl)-3,4-dihydro-1H-isoquinolin-3-yl]methyl]piperazin-1-yl]-N-[3-nitro-4-(tetrahydropyran-4-ylmethylamino)phenyl]sulfonyl-2-(1H-pyrrolo[2,3-b]pyridin-5-yloxy)benzamide] | > 250 nM | 10 to 50 nM | ≤ 2 µM | > 25 µM | > 200 nM | 2 to 10 µM |  |  |
| O=C(NS(=O)(=O)c1ccc(NCC2CCOCC2)c([N+](=O)[O-])c1)c1ccc(N2CCN(CC3Cc4ccccc4CN3C(=O)c3cccs3)CC2)cc1Oc1cnc2[nH]ccc2c1 (centres unmarked) [Compound 6, N-[3-nitro-4-(tetrahydropyran-4-ylmethylamino)phenyl]sulfonyl-2-(1H-pyrrolo[2,3-b]pyridin-5-yloxy)-4-[4-[[2-(thiophene-2-carbonyl)-3,4-dihydro-1H-isoquinolin-3-yl]methyl]piperazin-1-yl]benzamide] | > 250 nM | > 50 nM | ≤ 2 µM | > 25 µM | > 200 nM | 2 to 10 µM |  |  |
| O=C(NS(=O)(=O)c1ccc(NCC2CCOCC2)c([N+](=O)[O-])c1)c1ccc(N2CCC(CN3C(=O)C4(CCCC4)C3c3cncc(Cl)c3)CC2)cc1Oc1cnc2[nH]ccc2c1 (centres unmarked) [Compound 9, 4-[4-[[1-(5-chloro-3-pyridyl)-3-oxo-2-azaspiro[3.4]octan-2-yl]methyl]-1-piperidyl]-N-[3-nitro-4-(tetrahydropyran-4-ylmethylamino)phenyl]sulfonyl-2-(1H-pyrrolo[2,3-b]pyridin-5-yloxy)benzamide] | > 250 nM | > 50 nM | 2 to 4 µM | > 25 µM |  |  | > 200 nM | 2 to 10 µM |

More lines, main results first:

| EC50 [2] | IC50 [3] | IC50 [6] | SMILES | CC50 at 3 days [1] | CC50 [4, 7] | CC50 [5, 8] | CC50 ([4]; RS4-11, 72 h) | CC50 ([5]; MOLT-4, 72 h) |
| --- | --- | --- | --- | --- | --- | --- | --- | --- |
| > 250 nM | 10 to 50 nM | > 4 µM | O=C(NS(=O)(=O)c1ccc(NCC2CCOCC2)c([N+](=O)[O-])c1)c1ccc(N2CCN(CC(O)(c3ccccc3)c3ccccc3)CC2)cc1Oc1cnc2[nH]ccc2c1 [Compound 7, 4-[4-(2-hydroxy-2,2-diphenyl-ethyl)piperazin-1-yl]-N-[3-nitro-4-(tetrahydropyran-4-ylmethylamino)phenyl]sulfonyl-2-(1H-pyrrolo[2,3-b]pyridin-5-yloxy)benzamide] | > 25 µM | > 200 nM | 2 to 10 µM |  |  |
| > 250 nM | > 50 nM | ≤ 2 µM | CC(C)C(=O)N1Cc2ccccc2C[C@H]1CN1CCN(c2ccc(C(=O)NS(=O)(=O)c3ccc(NCC4CCOCC4)c([N+](=O)[O-])c3)c(Oc3cnc4[nH]ccc4c3)c2)CC1 [Compound 8, 4-[4-[[2-(2-methylpropanoyl)-3,4-dihydro-1H-isoquinolin-3-yl]methyl]piperazin-1-yl]-N-[3-nitro-4-(tetrahydropyran-4-ylmethylamino)phenyl]sulfonyl-2-(1H-pyrrolo[2,3-b]pyridin-5-yloxy)benzamide] | > 25 µM | > 200 nM | 2 to 10 µM |  |  |
| > 250 nM | > 50 nM | > 4 µM | O=C(NS(=O)(=O)c1ccc(NCC2CCOCC2)c([N+](=O)[O-])c1)c1ccc(N2CCN(CC(O)(c3ccccc3)c3ccc(F)c(F)c3)CC2)cc1Oc1cnc2[nH]ccc2c1 (centres unmarked) [Compound 11, 4-[4-[2-(3,4-difluorophenyl)-2-hydroxy-2-phenyl-ethyl]piperazin-1-yl]-N-[3-nitro-4-(tetrahydropyran-4-ylmethylamino)phenyl]sulfonyl-2-(1H-pyrrolo[2,3-b]pyridin-5-yloxy)benzamide] | > 25 µM | > 200 nM | 2 to 10 µM |  |  |
| > 250 nM | > 50 nM | > 4 µM | CC(C)C(=O)N1Cc2ccccc2C[C@@H]1CN1CCN(c2ccc(C(=O)NS(=O)(=O)c3ccc(NCC4CCOCC4)c([N+](=O)[O-])c3)c(Oc3cnc4[nH]ccc4c3)c2)CC1 [Compound 37, 4-[4-[[(3R)-2-(2-methylpropanoyl)-3,4-dihydro-1H-isoquinolin-3-yl]methyl]piperazin-1-yl]-N-[3-nitro-4-(tetrahydropyran-4-ylmethylamino)phenyl]sulfonyl-2-(1H-pyrrolo[2,3-b]pyridin-5-yloxy)benzamide] |  |  |  |  |  |
| > 250 nM | > 50 nM | > 4 µM | CC1(C)Cc2ccccc2CN1CC1CCN(c2ccc(C(=O)NS(=O)(=O)c3ccc(NCC4CCOCC4)c([N+](=O)[O-])c3)c(Oc3cnc4[nH]ccc4c3)c2)CC1 [Compound 38, 4-[4-[(3,3-dimethyl-1,4-dihydroisoquinolin-2-yl)methyl]-1-piperidyl]-N-[3-nitro-4-(tetrahydropyran-4-ylmethylamino)phenyl]sulfonyl-2-(1H-pyrrolo[2,3-b]pyridin-5-yloxy)benzamide] |  |  |  |  |  |
| > 250 nM | 10 to 50 nM |  | O=C(NS(=O)(=O)c1ccc(NCC2CCOCC2)c([N+](=O)[O-])c1)c1ccc(N2CCC(CN3CCCCC3c3ccc(Cl)cc3)CC2)cc1Oc1cnc2[nH]ccc2c1 (centres unmarked) [Compound 47, 4-[4-[[2-(4-chlorophenyl)-1-piperidyl]methyl]-1-piperidyl]-N-[3-nitro-4-(tetrahydropyran-4-ylmethylamino)phenyl]sulfonyl-2-(1H-pyrrolo[2,3-b]pyridin-5-yloxy)benzamide] | 10 to 25 µM | > 200 nM | 2 to 10 µM |  |  |
